Test results published in PubChem BioAssay (NCI).
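Each compound was tested at five concentrations against cells in 96-well plates for 48 hours. Definition used: TGI = concentration required for complete inhibition of growth.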

Experiments:
Assay in all cases: NCI anticancer screen, dose series, 48 h
786-0 renal = system: 786-0 renal
A498 renal = system: A498 renal
ACHN renal = system: ACHN renal
BT-549 breast = system: BT-549 breast
CAKI-1 renal = system: CAKI-1 renal
CCRF-CEM leukemia = system: CCRF-CEM leukemia
COLO 205 colon = system: COLO 205 colon
DU-145 prostate = system: DU-145 prostate
EKVX NSCLC = system: EKVX NSCLC
HCC-2998 colon = system: HCC-2998 colon
HCT-116 colon = system: HCT-116 colon
HCT-15 colon = system: HCT-15 colon
HL-60(TB) leukemia = system: HL-60(TB) leukemia
HOP-62 NSCLC = system: HOP-62 NSCLC
HOP-92 NSCLC = system: HOP-92 NSCLC
HS 578T breast = system: HS 578T breast
HT29 colon = system: HT29 colon
IGROV1 ovarian = system: IGROV1 ovarian
K-562 leukemia = system: K-562 leukemia
KM12 colon = system: KM12 colon
LOX IMVI melanoma = system: LOX IMVI melanoma
M14 melanoma = system: M14 melanoma
MALME-3M melanoma = system: MALME-3M melanoma
MCF7 breast = system: MCF7 breast
MDA-MB-231 breast = system: MDA-MB-231 breast
MDA-MB-435 = system: MDA-MB-435
MDA-N = system: MDA-N
MOLT-4 leukemia = system: MOLT-4 leukemia
NCI-H226 lung = system: NCI-H226 lung
NCI-H23 lung = system: NCI-H23 lung
NCI-H460 lung = system: NCI-H460 lung
NCI-H522 lung = system: NCI-H522 lung
NCI/ADR-RES ovarian = system: NCI/ADR-RES ovarian
OVCAR-3 ovarian = system: OVCAR-3 ovarian
OVCAR-4 ovarian = system: OVCAR-4 ovarian
OVCAR-5 ovarian = system: OVCAR-5 ovarian
OVCAR-8 ovarian = system: OVCAR-8 ovarian
PC-3 prostate = system: PC-3 prostate
RPMI-8226 leukemia = system: RPMI-8226 leukemia
RXF 393 renal = system: RXF 393 renal
SF-268 CNS = system: SF-268 CNS
SF-295 CNS = system: SF-295 CNS
SF-539 CNS = system: SF-539 CNS
SK-MEL-2 melanoma = system: SK-MEL-2 melanoma
SK-MEL-28 melanoma = system: SK-MEL-28 melanoma
SK-OV-3 ovarian = system: SK-OV-3 ovarian
SN12C renal = system: SN12C renal
SNB-19 CNS = system: SNB-19 CNS
SNB-75 CNS = system: SNB-75 CNS
SW-620 colon = system: SW-620 colon
T-47D breast = system: T-47D breast
TK-10 renal = system: TK-10 renal
U251 CNS = system: U251 CNS
UACC-257 melanoma = system: UACC-257 melanoma
UACC-62 melanoma = system: UACC-62 melanoma
A549 NSCLC = system: A549 NSCLC
SK-MEL-5 melanoma = system: SK-MEL-5 melanoma
UO-31 renal = system: UO-31 renal

`O=c1cc(N2CCOCC2)[nH]c(=O)n1-c1cccc(Cl)c1` gave a TGI (786-0 renal) greater than 100 µM, a TGI (A498 renal) greater than 100 µM and a TGI (ACHN renal) greater than 100 µM. For the same compound, the TGI (BT-549 breast) was greater than 100 µM, the TGI (CAKI-1 renal) was greater than 100 µM and the TGI (CCRF-CEM leukemia) was greater than 100 µM. The TGI (COLO 205 colon) was greater than 100 µM, the TGI (DU-145 prostate) was greater than 100 µM and the TGI (EKVX NSCLC) was greater than 100 µM. The TGI (HCC-2998 colon) was greater than 100 µM, the TGI (HCT-116 colon) was greater than 100 µM and the TGI (HCT-15 colon) was greater than 100 µM. It also gave a TGI (HL-60(TB) leukemia) greater than 100 µM, a TGI (HOP-62 NSCLC) greater than 100 µM and a TGI (HOP-92 NSCLC) greater than 100 µM. The TGI (HS 578T breast) was greater than 100 µM, the TGI (HT29 colon) was greater than 100 µM and the TGI (IGROV1 ovarian) was greater than 100 µM. For the same compound, the TGI (K-562 leukemia) was greater than 100 µM, the TGI (KM12 colon) was greater than 100 µM and the TGI (LOX IMVI melanoma) was greater than 100 µM. The TGI (M14 melanoma) was greater than 100 µM, the TGI (MALME-3M melanoma) was greater than 100 µM and the TGI (MCF7 breast) was greater than 100 µM. For the same compound, the TGI (MDA-MB-231 breast) was greater than 100 µM, the TGI (MDA-MB-435) was greater than 100 µM and the TGI (MDA-N) was greater than 100 µM. The TGI (MOLT-4 leukemia) was greater than 100 µM, the TGI (NCI-H226 lung) was greater than 100 µM and the TGI (NCI-H23 lung) was greater than 100 µM. For the same compound, the TGI (NCI-H460 lung) was greater than 100 µM, the TGI (NCI-H522 lung) was greater than 100 µM and the TGI (NCI/ADR-RES ovarian) was greater than 100 µM. For the same compound, the TGI (OVCAR-3 ovarian) was greater than 100 µM, the TGI (OVCAR-4 ovarian) was greater than 100 µM and the TGI (OVCAR-5 ovarian) was greater than 100 µM. For the same compound, the TGI (OVCAR-8 ovarian) was greater than 100 µM, the TGI (PC-3 prostate) was greater than 100 µM and the TGI (RPMI-8226 leukemia) was greater than 100 µM. The TGI (RXF 393 renal) was greater than 100 µM, the TGI (SF-268 CNS) was greater than 100 µM and the TGI (SF-295 CNS) was greater than 100 µM. For the same compound, the TGI (SF-539 CNS) was greater than 100 µM, the TGI (SK-MEL-2 melanoma) was greater than 100 µM and the TGI (SK-MEL-28 melanoma) was greater than 100 µM. It also gave a TGI (SK-OV-3 ovarian) greater than 100 µM, a TGI (SN12C renal) greater than 100 µM and a TGI (SNB-19 CNS) greater than 100 µM. The TGI (SNB-75 CNS) was greater than 100 µM, the TGI (SW-620 colon) was greater than 100 µM and the TGI (T-47D breast) was greater than 100 µM. For the same compound, the TGI (TK-10 renal) was greater than 100 µM, the TGI (U251 CNS) was greater than 100 µM and the TGI (UACC-257 melanoma) was greater than 100 µM. It also gave a TGI (UACC-62 melanoma) greater than 100 µM.

`N=c1c2c(=S)n(-c3ccccc3)c(=S)n(-c3ccccc3)c2nc(SCCCN2CCCCC2)n1-c1ccccc1` showed a TGI (786-0 renal) of 2.28 µM, a TGI (A498 renal) of 7.11 µM and a TGI (A549 NSCLC) of 3.78 µM. It also gave a TGI (ACHN renal) of 3.08 µM, a TGI (BT-549 breast) of 3.41 µM and a TGI (CAKI-1 renal) of 3.15 µM. The TGI (CCRF-CEM leukemia) was 1.41 µM, the TGI (COLO 205 colon) was 3.19 µM and the TGI (DU-145 prostate) was 3.03 µM. The TGI (EKVX NSCLC) was 3.47 µM, the TGI (HCC-2998 colon) was 2.82 µM and the TGI (HCT-116 colon) was 3.1 µM. It also gave a TGI (HCT-15 colon) of 3.23 µM, a TGI (HL-60(TB) leukemia) of 3.81 µM and a TGI (HOP-62 NSCLC) of 3.38 µM. The TGI (HOP-92 NSCLC) was 3.28 µM, the TGI (HS 578T breast) was greater than 100 µM and the TGI (HT29 colon) was 4.32 µM. The TGI (IGROV1 ovarian) was 3.09 µM, the TGI (KM12 colon) was 3.44 µM and the TGI (M14 melanoma) was 3.1 µM. For the same compound, the TGI (MALME-3M melanoma) was 3.31 µM, the TGI (MCF7 breast) was 1.3 µM and the TGI (MDA-MB-231 breast) was 3.05 µM. For the same compound, the TGI (MDA-MB-435) was 3.14 µM, the TGI (MDA-N) was 3.33 µM and the TGI (NCI-H226 lung) was 6.84 µM. It also gave a TGI (NCI-H23 lung) of 3.37 µM, a TGI (NCI-H460 lung) of 4.3 µM and a TGI (NCI-H522 lung) of 2.54 µM. The TGI (NCI/ADR-RES ovarian) was 8.97 µM, the TGI (OVCAR-3 ovarian) was 3.02 µM and the TGI (OVCAR-4 ovarian) was 3.23 µM. For the same compound, the TGI (OVCAR-5 ovarian) was 26.2 µM, the TGI (OVCAR-8 ovarian) was 3.36 µM and the TGI (PC-3 prostate) was 3.03 µM. It also gave a TGI (RPMI-8226 leukemia) greater than 100 µM, a TGI (RXF 393 renal) of 3.26 µM and a TGI (SF-268 CNS) of 3.55 µM. For the same compound, the TGI (SF-295 CNS) was 12.6 µM, the TGI (SF-539 CNS) was 16.7 µM and the TGI (SK-MEL-2 melanoma) was 3.77 µM. It also gave a TGI (SK-MEL-28 melanoma) of 5.1 µM, a TGI (SK-MEL-5 melanoma) of 3.63 µM and a TGI (SK-OV-3 ovarian) of 5.34 µM. It also gave a TGI (SN12C renal) of 3.28 µM, a TGI (SNB-19 CNS) of 9.41 µM and a TGI (SNB-75 CNS) of 3.28 µM. For the same compound, the TGI (SW-620 colon) was 5.15 µM, the TGI (T-47D breast) was 5.78 µM and the TGI (TK-10 renal) was 3.08 µM. For the same compound, the TGI (U251 CNS) was 3.12 µM, the TGI (UACC-257 melanoma) was 3.31 µM and the TGI (UACC-62 melanoma) was 3.03 µM.

`COc1ccc2c(c1)/C(=C\c1c(-c3ccccc3)nc3n1CCS3)C(=O)N2` showed a TGI (786-0 renal) of 28.6 µM, a TGI (A498 renal) of 21.3 µM and a TGI (A549 NSCLC) of 55.9 µM. It also gave a TGI (ACHN renal) of 56.8 µM, a TGI (BT-549 breast) of 32.7 µM and a TGI (CAKI-1 renal) of 37.4 µM. For the same compound, the TGI (CCRF-CEM leukemia) was 26.9 µM, the TGI (COLO 205 colon) was 11.2 µM and the TGI (DU-145 prostate) was 60 µM. For the same compound, the TGI (EKVX NSCLC) was 48 µM, the TGI (HCC-2998 colon) was 22.9 µM and the TGI (HCT-116 colon) was 18.2 µM. The TGI (HCT-15 colon) was 40.6 µM, the TGI (HL-60(TB) leukemia) was 11.4 µM and the TGI (HOP-62 NSCLC) was 27.6 µM. The TGI (HOP-92 NSCLC) was 30.8 µM, the TGI (HS 578T breast) was 38.7 µM and the TGI (HT29 colon) was 16 µM. It also gave a TGI (IGROV1 ovarian) of 21.4 µM, a TGI (K-562 leukemia) of 17 µM and a TGI (KM12 colon) of 19.6 µM. For the same compound, the TGI (LOX IMVI melanoma) was 20.6 µM, the TGI (M14 melanoma) was 23 µM and the TGI (MALME-3M melanoma) was 30.7 µM. The TGI (MCF7 breast) was 29 µM, the TGI (MDA-MB-231 breast) was 17.9 µM and the TGI (MDA-MB-435) was 7.19 µM. For the same compound, the TGI (MDA-N) was 5.62 µM, the TGI (MOLT-4 leukemia) was 16.9 µM and the TGI (NCI-H23 lung) was 33.4 µM. For the same compound, the TGI (NCI-H460 lung) was 14.4 µM, the TGI (NCI-H522 lung) was 24.4 µM and the TGI (NCI/ADR-RES ovarian) was 35.4 µM. For the same compound, the TGI (OVCAR-3 ovarian) was 15.6 µM, the TGI (OVCAR-5 ovarian) was 51.8 µM and the TGI (OVCAR-8 ovarian) was 47.5 µM. The TGI (PC-3 prostate) was 17.2 µM, the TGI (RPMI-8226 leukemia) was 32.2 µM and the TGI (RXF 393 renal) was 34.3 µM. The TGI (SF-268 CNS) was 28.1 µM, the TGI (SF-295 CNS) was 15.1 µM and the TGI (SF-539 CNS) was 19.1 µM. It also gave a TGI (SK-MEL-2 melanoma) of 20.2 µM, a TGI (SK-MEL-28 melanoma) of 27.7 µM and a TGI (SK-MEL-5 melanoma) of 17 µM. It also gave a TGI (SK-OV-3 ovarian) of 34.5 µM, a TGI (SN12C renal) of 27.6 µM and a TGI (SNB-19 CNS) greater than 100 µM. The TGI (SNB-75 CNS) was 36.8 µM, the TGI (SW-620 colon) was 16.3 µM and the TGI (T-47D breast) was 61.6 µM. It also gave a TGI (TK-10 renal) of 27.8 µM, a TGI (U251 CNS) of 20.3 µM and a TGI (UACC-257 melanoma) of 27.4 µM. For the same compound, the TGI (UACC-62 melanoma) was 18.2 µM and the TGI (UO-31 renal) was 34.2 µM.
